Measurements: US20260306641A1, “HELICASE DEGRADERS” (priority 2023, published 2026)

How the values were obtained:
[1] = target: HPV18-E1 helicase (human papillomavirus 18, UniProt P06789); experiment: HPV18-E1 helicase assay; assay type: biochemical, human papilloma virus 18; settings: requires higher CA1 concentrations than CMG
Procedure: The HPV16 or HPV18 E1 helicase domain (16E1HD or 18E1HD) was expressed and purified from Sf9 cells by infecting the cells with 2Flag-GST-E1 baculovirus. The cleared cell lysates were prepared as for large T antigen and incubated with Glutathione beads at 4° C. overnight. The bound E1 proteins were eluted from beads with 20 mM reduced glutathione in Q buffer, applied to a Q Sepharose Fast Flow column, and eluted with 0.75 M potassium acetate in Q buffer. Purified E1 proteins were obtained by further incubation with Flag-M2 beads and elution with Flag peptides.
Helicase fork-unwinding assays were performed at 37° C. for 1 hr in 20 μL reaction volumes using 2-4 μl of hCMG (~15-30 fmol), in a buffer consisting of 25 mM Hepes-NaOH (pH 7.5), 5 mM NaCl, 0.5 mM ATP, 10 mM magnesium acetate, 1 mM DTT, 0.1 mg/ml bovine serum albumin (BSA), and ~10 fmol of radiolabeled DNA forks (20). Reactions were terminated with 4 μl of 6× stop solution [50 mM EDTA (pH 8.0), 40% (vol/vol) glycerol, 2% (wt/vol) SDS, and 0.3% bromophenol blue], loaded onto 10% (wt/vol) polyacrylamide gels, resolved at 150 volts in 1×-TBE buffer (89 mM Tris base, 89 mM boric acid, and 2 mM EDTA), dried on filter paper, and analyzed by autoradiography and quantified by PhosphorImager assessment. […]

[2] = system: hCMG complexes immunoprecipitated from HaCaT cells; experiment: Co-immunoprecipitation, HaCaT nuclear extract; assay type: biochemical, human; settings: 15 μM, 30 min
Procedure: (§1) Nuclear extracts were prepared from synchronized HaCaT cells after releasing into S-phase (at 20 hrs post release) or HEK-293T cells expressing stable Flag-Mcm2 protein (human). Cells from one 10 cm dish were resuspended in […] of Buffer A (10 mM Hepes-KOH pH 7.5, 10 mM KCl, 1.5 mM MgCl2, 0.34 M sucrose, 10% glycerol, protease inhibitors, and 0.1% Triton-X-100) and incubated on ice for 5 min. The nuclear pellet was obtained by centrifugation at 4,000 rpm at 4° C. for 5 min and washed with the Buffer A without Triton X-100. The nuclear extract was obtained by resuspending the nuclear pellet in […] of Buffer A containing 420 mM potassium acetate and 0.01% Triton X-100, and incubating at 4° C. for 1 hr. The final concentration of potassium acetate in nuclear extracts was adjusted to 200 mM for the co-immunoprecipitation assays. For the co-immunoprecipitation assays, […] of indicated antibody [anti-Mcm2, anti-Psf1, or rabbit IgG (Sigma)], or 30 mL of mouse IgG or anti-Flag agarose beads (Sigma), was incubated with […] of nuclear extract at 4° C. for 4 hrs. Protein A/G agarose beads (30 mL, Santa Cruz, sc-2003) were added and incubated for 1 hr with antibodies. Agarose beads were washed once in Buffer A containing 200 mM potassium acetate and 0.01% Triton X-100 and incubated with 15 μM CA1 or DMSO (same concentration as in CA1 sample) for 30 min. Beads were washed in the same buffer and analyzed by immunoblotting with indicated antibodies.

[3] = system: human Topoisomerase-II; experiment: Topoisomerase II decatenation assay; assay type: biochemical
Procedure: The Topoisomerase II drug screening kit (kDNA-based; TopoGEN, TG1009-1A) was used to assess in vitro Topo II enzyme activity according to the manufacture protocol. Assays were performed in […] reactions with 4 μL of 5× Assay Buffer (0.25 M Tris-HCl (pH 8), 10 mM ATP, 0.75 M NaCl, 50 mM MgCl2, 2.5 mM Dithiothreitol, 150 mg/ml BSA), 1 mL kDNA ([…]), 1 mL DMSO solvent or compounds at indicated concentrations, 1 mL Topoisomerase II (2 Units), 13 mL water. Assays were incubated at 37° C. for 30 min and stopped by addition of 2 mL 10% SDS and Proteinase K (50 mg/ml). After incubating at 37° C. for 15 min, samples were mixed with 1/10 volume of loading buffer and resolved on a 1% agarose gel.

[4] = system: CMG proteins in 143B cells; experiment: Immunoblot of chromatin-bound proteins, asynchronous 143B OS cells; assay type: cell-based, human; settings: 24 hrs
Procedure: (§2) FIGS. 7A-7C depict that CMGi induce DNA damage and selectively reduce tumor cell viability. (FIG. 7A) Cell Titer Glo viability assays for CA1/CMGi sensitivity were performed on 143B (OS), Psn1 (PDAC), and H460 (NSCLC) tumor lines. Novobiocin was tested against 143B cells as a comparison. (FIG. 7B) Immunoblot of chromatin-bound proteins (as indicated) from asynchronous 143B OS cells treated with 10 μM novobiocin or increasing concentrations of CA1 for 24 hrs. (FIG. 7C) Immunoblot of total proteins from Psn1, H460, 143B, and HaCaT cells treated with 5 μM CA1/CMGi or DMSO/novobiocin controls, or HaCaT treated with 15 μM CA1/CMGi (right side). The Psn1 and H460 cells were treated for 24 hrs, and 143B and HaCaT cells were treated for 48 hrs. Probing of blots was done with anti-gamma-H2AX (DNA damage signal) or anti-cleaved-Parp (apoptotic indicator). Anti-GAPDH is a loading control.

[5] = system: Flag-Mcm2 hCMG and replisome complexes from HEK-293T cells; experiment: Co-immunoprecipitation, HEK-293T cells expressing Flag-Mcm2; assay type: biochemical, human; settings: 15 μM, 30 min; Flag IP
Procedure: as §1, with “Agarose beads were washed once in Buffer A containing 200 mM potassium acetate and 0.01% Triton X-100 and incubated with 15 μM CA1 or DMSO (same concentration as in CA1 sample) for 30 min.” left out

[6] = system: Psn1, H460 and 143B tumor lines; experiment: DNA damage (gamma-H2AX) and apoptosis (cleaved Parp) immunoblot, tumor lines; assay type: cell-based, human; settings: 5 μM
Procedure: as §2

[7] = system: DNA Polymerase-theta; settings: higher doses; cited from earlier work
[8] = system: 143B cells; experiment: CellTiter-Glo viability, 143B; assay type: cell-based, human; settings: 72 hr
Procedure: as §2
Cell viability determinations were performed using CellTiter-Glo Assays (Promega; cat #G7572). Cells were seeded in 96-well plates at a density of ~3×10^3 cells/well and treated with drugs for 72 hr, after which the cells were processed for viability using CellTiter-Glo reagent according to the instructions of the manufacturer. Each drug concentration test was performed using four replicates, and results averaged and plotted on graphs, +/−1 s.d.

Chain of HPV18-E1 helicase (P06789 305-657): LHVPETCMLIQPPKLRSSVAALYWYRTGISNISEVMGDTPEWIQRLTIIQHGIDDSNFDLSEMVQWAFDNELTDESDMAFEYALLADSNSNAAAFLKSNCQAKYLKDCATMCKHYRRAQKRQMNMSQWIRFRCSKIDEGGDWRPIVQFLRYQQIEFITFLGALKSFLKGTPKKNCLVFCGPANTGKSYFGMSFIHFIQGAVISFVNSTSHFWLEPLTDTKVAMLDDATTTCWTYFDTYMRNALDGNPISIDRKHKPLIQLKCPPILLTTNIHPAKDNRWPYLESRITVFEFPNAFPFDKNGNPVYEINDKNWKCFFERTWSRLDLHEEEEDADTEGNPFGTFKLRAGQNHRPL

CO[C@@H]1[C@@H](OC(=O)c2ccc(C)[nH]2)[C@@H](O)[C@H](Oc2ccc3c(O)c(NC(=O)c4c[nH]c(C(=O)Nc5c(O)c6ccc(O[C@@H]7OC(C)(C)[C@H](OC)[C@@H](OC(=O)c8ccc(C)[nH]8)[C@H]7O)c(C)c6oc5=O)c4C)c(=O)oc3c2C)OC1(C)C [CA1]
HPV18-E1 helicase sensitivity [1]: sensitive to CA1, but require higher CA1 concentrations
Cdc45 association with MCMs ([2]; Mcm2 IP): causes Cdc45 to dissociate from MCMs
MCM complexes ([2]; Mcm2 IP): does not disrupt MCM complexes
Mcm2 and Mcm6 interactions with GINS ([2]; Psf1 IP): abolished
Psf1-3 interactions ([2]; Psf1 IP): did not disrupt Psf1-3 interactions
CA1 concentration required for human Topo-II inhibition relative to that required to block CMG activity ([3]; decatenation assay in vitro): ~ 10 fold
human Topoisomerase-II inhibition ([3]; low concentrations used in cell-based experiments): no inhibitory effect on human Topoisomerase-II at low concentrations
MCM levels ([4]; higher CA1 doses): MCM levels start to diminish
RPA levels ([4]; low micromolar CA1): reducing RPA levels in a dose-dependent manner
chromatin-bound levels of Cdc45, Psf1 and Psf2 ([4]; low micromolar CA1): reducing the chromatin-bound levels of Cdc45, Psf1, and Psf2
MCM interactions [5]: does not disrupt MCM interactions
Psf1, Cdc45 and Ctf4 association with Flag-Mcm2 [5]: displaces Psf1, Cdc45, and Ctf4 from Flag-Mcm2
gamma-H2AX and Parp cleavage, tumor lines vs HaCaT [6]: tumor cell-specific increase in DNA damage signals (gamma-H2AX surrogate) and Parp cleavage

CO[C@@H]1[C@@H](OC(N)=O)[C@@H](O)[C@H](Oc2ccc3c(O)c(NC(=O)c4ccc(O)c(CC=C(C)C)c4)c(=O)oc3c2C)OC1(C)C [novobiocin]
DNA Polymerase-theta inhibition [7]: can inhibit a different anti-cancer target, DNA Polymerase-theta
human Topoisomerase-II inhibition ([3]; 1 mM): no effect at 1 mM
effect on tumor cell viability [8]: little effect until higher concentrations are tested
